Measurements reported in US20070009571A1, “Novel haptotactic peptides” (Hadasit Medical Research Services & Development Ltd., priority 1998, published 2007).
Entries after “also recorded” stand apart in the source; their conditions may differ. Read-outs that look alike come from different tables or passages of the source. Marks after values point to notes of the source that are not given here. No end group written: not given here.

Assays:
EC cells (BAEC) = assay: FACS analysis of binding of FITC-labeled peptides; format: cell-based, bovine; conditions: 10 μg/ml or 100 μg/ml, medium with 0.1% albumin
Method: EC and HF cell monolayers were washed and then incubated with trypsin-versene. Cells were then washed with growth medium and resuspended in medium with 0.1% albumin. FITC-labeled peptide-Cβ (SEQ ID NO:1) was incubated with 5×10^5 EC cells (10 μg/ml or 100 μg/ml) or with 2.5×10^5 HF cells (100 μg/ml) in medium with 0.1% albumin. FITC-labeled peptide-CαE (SEQ ID NO:3) and Cα (SEQ ID NO:4) (10 μg/ml) was incubated with 5×10^5 EC cells in medium with 0.1% albumin. Cells were then washed with PBS and 1% albumin. Cells were resuspended in PBS and 1% albumin and then filtered through a mesh for FACS analysis, in which the FITC tluorescence was measured for each cell.
The control is without FITC-labeled peptide (background fluorescence).
In competition experiments, cells were incubated with various concentrations of unlabeled Cβ (SEQ ID NO:1) for 15 mins, an aliquot of Cβ^FITC (4 mM) was added and the sample was subjected to FACS analysis. […] The Cβ^FITC (SEQ ID NO:1) uptake experiments best fitted a linear-quadratic curve-fit.

HF = assay: Cell proliferation, MTS assay; format: cell-based, human; conditions: 0.4 nM-4 μM, 96 well plates
Method: Cell proliferation was evaluated by measuring cell density as a function of time by two different colorimetric assays. The MTS colorimetric assay (CellTitre 96 Aqueous Assay by Promega) is based on dehydrogenase conversion of MTS (methyl tetrazolium salt) by viable cells to […] (Ge M. Tang, G., Ryan. T. J. and Malik. A. B., “Fibrinogen degradation product fragment D induces endothelial cell detachment by activation of cell-mediated fibrinolysis”, J. Clin. Inves., 90:2508-2516 (1992)); the methylene blue (MB) assay is based on the staining of monolayer cells after their fixation, and reading the absorbence of the absorbed dye.
The MTS assay for viable cells was performed as follows: 30 μL of freshly prepared MTS/PMS were added to each well; following 2 hrs incubation at 37° C., the plates were placed on a computer driven microplate reader (Anthos HT-II, Salzburg, Austria), programmed to shake the plate for 1 minute before reading the optical density (OD) of the dye at 490 nm. The measurements were repeated following 4 and 6 hours of incubation.
Peptides (Cα (SEQ ID NO:4), […], PreCγ (SEQ ID NO:2) and CαE (SEQ ID NO:3)), up to 1 μg/mL or 100 μg/mL fibrinogen or thrombin (final concentrations) were added to the culture medium and cell numbers were assayed by day 3 using the MTS assay. The change in cell number was compared with that observed versus saline control. Of the 5 peptides tested at dosages up to 10 μg/mL (approximately equimolar to 1 μg/mL fibrinogen), none of the peptides exerted significant effect on cell proliferation (FIG. 7).

[1] = test system: bovine aortic endothelial cells (EC, BAEC); assay: Haptotaxis assay: attachment of ligand-coated SB to cultured cells; format: cell-based; conditions: for % Binding of peptide-coated SB to normal cultured cells: percentage of SB-ligand attached to cells by day 4
Method: (§1) Peptides or fibrinogen were covalently bound to CNBr activated sepharose beads (SB) (Pharmacia, Piscataway, N.J.) using techniques previously used to bind albumin, fibrinogen and thrombin. Briefly, CNBr-activated sepharose 4B (Pharmacia) was washed with 1N HCl, and suspended in the coupling buffer (pH 8.3), following the protocol supplied by the manufacturer. The peptides were dialyzed against the coupling buffer to remove Tris. Peptides (1 mg) were not highly water soluble. The peptides were dissolved in 1 mL 70% ethanol or dimethylformamide, and were then mixed into the coupling buffer containing 1 mL CNBr-activated sepharose. The suspension was gently agitated overnight, then centrifuged 500×g to pack the beads. This procedure covalently binds more than 95% of proteins or peptides including fibrinogen or peptides-CαE (SEQ ID NO:3), Cβ (SEQ ID NO:1) and preCγ (SEQ ID NO:2) to the beads determined by Abs280 readings of the solutions.
(§2) The migratory/adhesion response of cells to proteins (such as fibrinogen) or peptides covalently bound to SB was measured as follows. Cells were grown in 6 or 12 well plates to near confluence or in suspension until they covered about ½ to ⅔ of the plate surface. At that point, about […] of a suspension containing 50% v/v SB coated with the test protein or peptide were added to the plate and dispersed by gentle shaking for 1 min. The plate was then returned to the incubator and examined at different times by inverted phase microscopy.
(§3) The SB (naked or ligand bound) sedimented onto the nearly confluent cell layer and occasionally made physical contact with cell membranes on the plate (ascribed to Brownian motion or micro-convection currents). […] Typically, 300 beads (but not less then 200) were counted in each well and the ratio of SB bound to the cells relative to total number SB could be calculated (SB bound/SB total). Counting the percentage of SB attached to the cell surface at different time intervals provided a quantitative assay of the kinetics of the attachment of coated beads to cells. Negative control with uncoated SB or positive controls with SB-fibrinogen were employed with at least 3 wells measured for each. The statistical error was calculated from the square root of the total counts.
(§4) The peptides of the present invention were synthesized and tested in cell culture systems as described above. Essentially, peptides were covalently attached to sepharose beads to form SB-Cα (SEQ ID NO:4), SB-Cβ (SEQ ID NO:1), SB-PreCγ (SEQ ID NO:2), SB-Cγ (SEQ ID NO:5) and SB-CαE (SEQ ID NO:3), respectively, as was fibrinogen to form SB-Fib. The SB-peptide combination was then incubated with cultured cells. […] The haptotactic potency of the peptides is summarized in Table 3 with the percentage of SB-Fib/peptide attached to cells (by day 4) given in columns 2-5 of Table 3.

tested cell lines = assay: Haptotaxis assay, statements over the tested cell lines; format: cell-based; conditions: ligands covalently bound to SB; for haptotactic response / cell binding to SB-ligand, in words: near confluent cell cultures
Method: as §1, §2, §3, §4

BAEC = assay: Chemotaxis, micro-Boyden chamber assay; format: cell-based, bovine
Method: Chemotaxis was evaluated using 48-well plastic Microtaxis micro-Boyden chambers. Polycarbonate filters with pore size of 8 μm were coated with fibronectin for 2 hours at 37° C. Conditioned medium from 3T3 cells served as a positive control. Test solution (26 μl) containing the tested peptides or protein or medium with no additions that served as control were placed in the lower chamber, covered with the filter. 50 μl cell suspension was introduced to the upper chamber of each well. The number of cells/well varied in the range of 5,000-10,000 in different experiments. The device loaded with cells was incubated at 37° C. for 4-5 hours. The filter was then removed and the non-migrating cells on its upper part were carefully wiped off with a damp cotton swab. The filter was fixed in methanol and stained with Accustain (modified Wright stain solution Sigma Diagnostics: St. Lois, Mo.). Cells that crossed or were retained within the filter were counted microscopically at low magnification so that the viewing field corresponded to the whole area of each well. Each experimental variant was performed in duplicated or triplicates and the data from, three successful experiments were normalized to the values of the positive control and averaged.
The chemotactic response of BAEC to a soluble gradient of […], the most haptotactic of the peptides studied was as follows. The results can be seen in FIG. 6. […] A similar, though more moderate, chemotaxis response to Cβ (SEQ ID NO:1) was obtained with HF.

[2] = test system: porcine smooth muscle cells (SMC); assay: Haptotaxis assay: attachment of ligand-coated SB to cultured cells; format: cell-based; conditions: for % Binding of peptide-coated SB to normal cultured cells: percentage of SB-ligand attached to cells by day 4
Method: as §1, §2, §3, §4

[3] = test system: normal human skin fibroblasts (HF); assay: Haptotaxis assay: attachment of ligand-coated sepharose beads (SB) to cultured cells; format: cell-based; conditions: for % Binding of peptide-coated SB to normal cultured cells: percentage of SB-ligand attached to cells by day 4
Method: as §1, §2, §3, §4

[4] = test system: human ovarian carcinoma cells (OV-1063); assay: Haptotaxis assay: attachment of ligand-coated SB to cultured cells; format: cell-based; conditions: percentage of SB-ligand attached to cells by day 4
Method: as §1, §2, §3, §4

[5] = test system: murine mammary adenocarcinoma cells (EMT-6); assay: as above; format: cell-based; conditions: percentage of SB-ligand attached to cells by day 4
Method: as §1, §2, §3, §4

[6] = test system: normal murine fibroblasts (MF); assay: as above; format: cell-based; conditions: percentage of SB-ligand attached to cells by day 4
Method: as §1, §2, §3, §4

## FITC-labeled peptide Cγ: FITC-labeled peptide Cγ (SEQ ID NO:5) (LTIGEGQQHHLGGAKQAGDV; not fully specified (N-terminus); also: FITC label, position not given here) [reference compound]
EC cells (BAEC)
  binding/uptake of FITC-labeled peptide by FACS, in words: bound only slightly (non-specifically)

## LTIGEGQQHHLGGAKQAGDV (Equivalent to the c-terminus of fibrinogen gamma-chain) [Cγ, control peptide homologous to the C-terminus of the fibrinogen γ chain, γ 392-411, reference compound]
HF
  proliferative response of HF (MTS proliferation assay): none of these peptides stimulated or inhibited proliferation
[1]
  cell binding / haptotactic response to SB-ligand, in words: only negligible effect
[1]; listed as peptide Cγ
  cell binding / haptotactic response to SB-ligand, in words: bound variably
Tested cell lines
  haptotactic response / cell binding to SB-ligand, in words: minor negligible activity

## RGADYSLRAVRMKIRPLVTQ (Equivalent to the c-erminus of fibrinogen alpha-E-chain) [CαE, haptotactic peptide homologous to the C-terminus of the fibrinogen αE chain, αE 828-847]
HF
  proliferative response of HF (MTS proliferation assay): none of these peptides stimulated or inhibited proliferation
Tested cell lines
  haptotactic response / cell binding to SB-ligand, in words: to a lesser degree; also recorded: significant haptotactic responses

## EADHEGTHSTKRGHAKSRP (Equivalent to the c-terminus of fibrinogen alpha-chain) [Cα, reference compound]
HF
  proliferative response of HF (MTS proliferation assay): none of these peptides stimulated or inhibited proliferation
EC cells (BAEC)
  binding/uptake of FITC-labeled peptide by FACS, in words: did not bind
Tested cell lines
  haptotactic response / cell binding to SB-ligand, in words: inactive
Tested cell lines; listed as peptide-Cα
  haptotactic response / cell binding to SB-ligand, in words: no cell adhesive effects
BAEC; soluble gradient, up to 40 μg/ml, conditioned medium = 100% chemotaxis
  chemotactic response of BAEC, in words: elicited no response

## KTRWYSMKKTTMKIIPFNRL (Equivalent to an internal sequence of fibrinogen gamma-chain) [PreCγ]
HF
  proliferative response of HF (MTS proliferation assay): none of these peptides stimulated or inhibited proliferation
[1]
  cell binding / haptotactic response to SB-ligand, in words: greatest haptotactic response
Tested cell lines
  haptotactic response / cell binding to SB-ligand, in words: significant haptotactic responses
Tested cell lines; listed as preCγ
  haptotactic response / cell binding to SB-ligand, in words: highly haptotactic; also recorded: most potent
BAEC; concentrations of up to 40 μM
  chemotaxis, in words: significant chemotaxis

## FITC-labeled peptide Cα: FITC-labeled peptide Cα (SEQ ID NO:4), negative control (EADHEGTHSTKRGHAKSRP; not fully specified (N-terminus); also: FITC label, position not given here) [reference compound]
EC cells (BAEC)
  binding/uptake of FITC-labeled peptide by FACS, in words: bound only slightly (non-specifically)

## SB-PreCγ: peptide preCγ (SEQ ID NO:2) covalently attached to sepharose beads (KTRWYSMKKTTMKIIPFNRL; also: attached to sepharose beads)
[2]
  cell binding to SB-ligand, in words: bound
  % Binding of peptide-coated SB to normal cultured cells: 98%
[1]
  cell binding / haptotactic response to SB-ligand, in words: bound
  % Binding of peptide-coated SB to normal cultured cells: 100%
Tested cell lines
  cell lines excepted from binding to SB-ligand (all other tested lines bound): with the exception of OV-1063, keratinocytes and cells derived from a leucocytic lineage
[3]
  cell binding to SB-ligand, in words: bound
  % Binding of peptide-coated SB to normal cultured cells: 100%

## SB-Cγ: peptide Cγ (SEQ ID NO:5) covalently attached to sepharose beads (LTIGEGQQHHLGGAKQAGDV; also: attached to sepharose beads) [reference compound]
[2]
  % Binding of peptide-coated SB to normal cultured cells: 1%
[4]
  % Binding of peptide-coated SB to normal cultured cells: 0%
[5]
  % Binding of peptide-coated SB to normal cultured cells: 2%
[6]
  % Binding of peptide-coated SB to normal cultured cells: 0%
[1]
  cell binding / haptotactic response to SB-ligand, in words: Variable haptotaxis
  % Binding of peptide-coated SB to normal cultured cells: 2 to 93* %
[3]
  % Binding of peptide-coated SB to normal cultured cells: 2%
